This is an account of results in patent US11655235B2, “Pyrrolidine and piperidine compounds” (YUHAN CORPORATION, priority 2019, dated 2023).

What all share (type): biochemical
Experiment [1] concerns the target T1, Recombinant human FAP (Homo sapiens, UniProt Q12884).
T1 construct: purchased R&D systems
T1 sequence (Q12884 1-760): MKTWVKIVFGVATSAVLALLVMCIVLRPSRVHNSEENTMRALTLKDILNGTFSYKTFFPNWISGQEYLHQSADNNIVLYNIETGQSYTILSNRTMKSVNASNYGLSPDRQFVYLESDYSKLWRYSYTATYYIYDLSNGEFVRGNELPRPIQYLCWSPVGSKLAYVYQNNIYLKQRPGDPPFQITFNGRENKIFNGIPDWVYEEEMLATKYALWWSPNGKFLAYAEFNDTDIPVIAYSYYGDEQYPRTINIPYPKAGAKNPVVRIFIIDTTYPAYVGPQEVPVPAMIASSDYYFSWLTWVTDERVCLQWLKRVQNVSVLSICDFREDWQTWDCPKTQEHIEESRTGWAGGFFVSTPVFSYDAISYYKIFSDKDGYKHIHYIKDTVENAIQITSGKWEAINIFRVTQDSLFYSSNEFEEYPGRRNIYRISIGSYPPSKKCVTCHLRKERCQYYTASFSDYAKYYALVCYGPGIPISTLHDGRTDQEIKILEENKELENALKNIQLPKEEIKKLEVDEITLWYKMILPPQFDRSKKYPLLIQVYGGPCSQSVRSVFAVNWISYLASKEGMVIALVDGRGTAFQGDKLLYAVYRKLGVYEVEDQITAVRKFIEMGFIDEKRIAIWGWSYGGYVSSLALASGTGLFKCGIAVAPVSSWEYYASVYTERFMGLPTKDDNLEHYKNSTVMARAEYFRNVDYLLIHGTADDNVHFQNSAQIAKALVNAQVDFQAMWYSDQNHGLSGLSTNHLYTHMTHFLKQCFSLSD
Put plainly: FAP FRET assay, FGF21-sequence FRET peptide substrate. The conditions noted are these: FRET peptide with human FGF21 sequence, 6 μM, 37° C. How it is done:
The compounds according to the present technology were evaluated in terms of the inhibitory effect on the activity of dipeptidyl peptidases including FAP by using a substrate producing fluorescent substances upon enzymatic decomposition. The test was conducted at 25° C. to get a final reaction volume of 100 μL in a 96 black well plate. […] Briefly, the test compounds were dissolved in dimethyl sulfoxide (DMSO) at a concentration of 20 mM and then subjected to serial dilution, thereby creating an 8 point curve. As for the control group, a 6 point curve created by serial dilution of Talabostat in the same buffer solution was used. Fluorescence intensity was measured using a microplate reader (Flexstation3, Molecular Devices) under the wavelength condition exciting at 380 nm and reading the emission at 460 nm. The inhibitory effect of the test compounds was measured as a decrease (%) in the signal rate as compared to the control group without any inhibitor. Data was fixed to a logistic model with four variables and IC50 value was calculated using GraphPad Prism program. For the FAP FRET assay, recombinant human FAP (R&D systems) was diluted with 50 mM HEPES (pH 7.2) buffer comprising 150 mM of sodium chloride, 0.1 mg/ml of bovine serum albumin (BSA) and 1 mM EDTA to be 10 ng per final reaction. The test compounds were subjected to serial dilution in a buffer under the condition containing up to 0.1% of DMSO. FRET peptides containing human FGF21 sequence ([…]) conjugated with HyLite Fluor 488 and dark quencher QXL 520 (Anaspec) was used as a substrate. By dissolving in DMSO and then diluting in the same buffer, the substrate was added to be 6 μM per final reaction. All reactions of FRET assay was conducted at 37° C.

For another experiment, the target named is DPP4 (Homo sapiens, UniProt P27487). As to the kind of experiment: DPP4 inhibition, fluorogenic substrate H-Gly-Pro-AMC. The arrangement: purchased R&D Systems.
Chain of DPP4 (P27487 whole entry): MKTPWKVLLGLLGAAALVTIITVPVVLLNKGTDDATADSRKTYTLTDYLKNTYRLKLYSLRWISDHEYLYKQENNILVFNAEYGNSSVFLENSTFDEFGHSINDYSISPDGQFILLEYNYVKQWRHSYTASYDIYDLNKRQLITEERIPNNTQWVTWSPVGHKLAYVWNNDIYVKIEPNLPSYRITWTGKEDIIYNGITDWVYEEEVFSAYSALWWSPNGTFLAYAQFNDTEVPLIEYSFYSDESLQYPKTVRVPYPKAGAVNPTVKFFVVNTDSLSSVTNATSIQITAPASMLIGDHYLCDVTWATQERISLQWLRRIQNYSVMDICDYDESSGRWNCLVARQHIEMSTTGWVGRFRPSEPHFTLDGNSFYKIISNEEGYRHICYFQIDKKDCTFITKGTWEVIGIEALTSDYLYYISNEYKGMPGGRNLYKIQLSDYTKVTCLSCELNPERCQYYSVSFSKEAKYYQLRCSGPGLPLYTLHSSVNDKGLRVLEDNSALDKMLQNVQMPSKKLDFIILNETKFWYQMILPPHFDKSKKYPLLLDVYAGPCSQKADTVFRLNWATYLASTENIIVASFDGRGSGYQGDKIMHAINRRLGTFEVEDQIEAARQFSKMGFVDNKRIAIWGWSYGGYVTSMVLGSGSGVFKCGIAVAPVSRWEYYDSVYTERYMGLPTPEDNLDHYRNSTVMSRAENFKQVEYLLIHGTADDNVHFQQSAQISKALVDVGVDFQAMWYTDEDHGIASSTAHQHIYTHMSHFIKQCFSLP
Another experiment concerns the target T2, recombinant human DPP7 (Homo sapiens, UniProt Q9UHL4).
T2 construct: purchased R&D Systems
As to the kind of experiment: DPP7 inhibition, fluorogenic substrate Lys-Pro-AMC. The protocol: (§1) The compounds according to the present technology were evaluated in terms of the inhibitory effect on the activity of dipeptidyl peptidases including FAP by using a substrate producing fluorescent substances upon enzymatic decomposition. The test was conducted at 25° C. to get a final reaction volume of 100 μL in a 96 black well plate. […] Briefly, the test compounds were dissolved in dimethyl sulfoxide (DMSO) at a concentration of 20 mM and then subjected to serial dilution, thereby creating an 8 point curve. As for the control group, a 6 point curve created by serial dilution of Talabostat in the same buffer solution was used. Fluorescence intensity was measured using a microplate reader (Flexstation3, Molecular Devices) under the wavelength condition exciting at 380 nm and reading the emission at 460 nm. The inhibitory effect of the test compounds was measured as a decrease (%) in the signal rate as compared to the control group without any inhibitor. Data was fixed to a logistic model with four variables and IC50 value was calculated using GraphPad Prism program. As for recombinant human DPP4 (R&D Systems), 25 mM tris (pH 8.0) buffer as a buffer solution and H-Gly-Pro-AMC (Bachem) as a substrate were used. As for recombinant human DPP7 (R&D Systems), 25 mM MES (pH 6.0) buffer as a buffer solution and Lys-Pro-AMC (Bachem) as a substrate were used. As for recombinant human DPP8 (PBS Bioscience), as a buffer solution, a 10 mM tris (pH 7.4) buffer comprising 10 mM of magnesium chloride and 0.05% of Tween 20, and Z-Ala-Pro-AMC (BPS Bioscience) as a substrate were used. As for recombinant human DPP9 (R&D Systems), a 25 mM tris (pH 8.0) buffer as a buffer solution and H-Gly-Pro-AMC (Bachem) as a substrate were used. As for recombinant human PREP (R&D System), as a buffer solution, a 25 mM tris (pH 7.5) buffer comprising 250 mM sodium chloride and 2.5 mM DTT (Dithiolthreitol), and Z-Gly-Pro-AMC (Bachem) as a substrate were used. The evaluation was made by using 10 ng of DPP4, PDD7, and PREP, 20 ng of DPP8, and 50 ng of DPP9 based on the final reaction. In the evaluation of DPP4, the test compounds were subjected to serial dilution in a buffer under the condition containing up to 0.1% of DMSO. In the evaluation of DPP7, DPP8, DPP9, and PREP, the test compounds were subjected to serial dilution in each buffer under the condition containing up to 0.5% of DMSO.

The next experiment concerns the target T3, recombinant human DPP9 (Homo sapiens, UniProt Q86TI2).
T3 construct: purchased R&D Systems
Put plainly: DPP9 inhibition, fluorogenic substrate H-Gly-Pro-AMC. The conditions noted are these: at 1 μM. The protocol: as §1

Experiment [2] deals with T1, Recombinant human FAP. As to the kind of experiment: FAP inhibition, fluorogenic substrate Z-Gly-Pro-AMC. The conditions noted are these: 25° C., Z-Gly-Pro-AMC substrate. In short, it runs like this:
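Recombinant human FAP, 10 ng per reaction, in 50 mM Tris pH 7.5 with 1 M NaCl and 1 mg/ml BSA at 25° C; substrate Z-Gly-Pro-AMC, ≤0.1% DMSO. AMC fluorescence read at ex 380/em 460 nm; % signal-rate decrease vs no-inhibitor control, 8-point curves fitted to a four-parameter logistic for IC50.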

By IC50 is commonly meant the concentration at which inhibition is half-maximal.

T3 sequence (Q86TI2 whole entry): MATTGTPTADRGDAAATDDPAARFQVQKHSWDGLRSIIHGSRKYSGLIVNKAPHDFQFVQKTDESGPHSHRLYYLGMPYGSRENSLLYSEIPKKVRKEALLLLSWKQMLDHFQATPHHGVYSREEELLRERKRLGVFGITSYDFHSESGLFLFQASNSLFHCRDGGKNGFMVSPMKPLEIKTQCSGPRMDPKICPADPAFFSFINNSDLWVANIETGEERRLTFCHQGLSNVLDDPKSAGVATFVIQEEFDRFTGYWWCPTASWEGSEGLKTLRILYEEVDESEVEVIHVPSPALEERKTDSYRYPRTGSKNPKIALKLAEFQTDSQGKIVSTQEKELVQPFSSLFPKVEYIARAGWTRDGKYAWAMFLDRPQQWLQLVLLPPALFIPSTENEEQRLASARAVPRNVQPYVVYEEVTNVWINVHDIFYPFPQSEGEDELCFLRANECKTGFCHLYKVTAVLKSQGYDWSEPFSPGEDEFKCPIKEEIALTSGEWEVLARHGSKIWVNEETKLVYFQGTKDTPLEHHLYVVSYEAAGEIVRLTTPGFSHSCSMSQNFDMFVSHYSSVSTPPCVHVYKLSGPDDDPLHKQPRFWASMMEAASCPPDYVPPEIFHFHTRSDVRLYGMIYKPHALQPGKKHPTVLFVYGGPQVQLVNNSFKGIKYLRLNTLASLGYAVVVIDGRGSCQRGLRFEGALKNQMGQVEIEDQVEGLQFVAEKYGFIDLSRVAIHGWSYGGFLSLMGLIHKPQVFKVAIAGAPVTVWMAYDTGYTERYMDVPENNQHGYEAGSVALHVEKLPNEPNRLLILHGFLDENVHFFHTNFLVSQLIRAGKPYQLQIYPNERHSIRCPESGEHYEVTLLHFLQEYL

As for `CN(Cc1ccccc1)C(=O)c1cnc2cccc(NC3CCN(CC(=O)N4C[C@@H](F)C[C@H]4C#N)CC3)c2c1` [Example 389, N-benzyl-N-methyl-5-[[1-[2-oxo-2-[(2S,4S)-2-cyano-4-fluoro-pyrrolidin-1-yl]ethyl]-4-piperidyl]amino]quinoline-3-carboxamide], the IC50 on Recombinant human FAP [1] is 67.5 nM; on DPP4 (recombinant human DPP4) it was 3890 nM. On the same counts, the results for `N#C[C@@H]1CCCN1C(=O)CN1CC[C@@H](Nc2ccnc3ccc(Cl)cc23)C1` [Example 226, (2S)-1-[2-[(3R)-3-[(6-chloro-4-quinolyl)amino]pyrrolidin-1-yl]acetyl]pyrrolidine-2-carbonitrile] are 4.8 nM and 37900 nM.

With `COc1ccc2nccc(N[C@@H]3CCN(CC(=O)N4CCC[C@H]4C#N)C3)c2c1` [Example 224, (2S)-1-[2-[(3R)-3-[(6-methoxy-4-quinolyl)amino]pyrrolidin-1-yl]acetyl]pyrrolidine-2-carbonitrile], the IC50 on Recombinant human FAP [1] came out at 10 nM; on DPP4 (recombinant human DPP4), 54200 nM. In the case of `COc1ccc2ncc(N(C)C3CCN(CC(=O)N4C[C@@H](F)C[C@H]4C#N)CC3)cc2c1` [Example 327, (2S,4S)-4-fluoro-1-(2-(4-((6-methoxyquinolin-3-yl)(methyl)amino)piperidin-1-yl)acetyl)pyrrolidine-2-carbonitrile], the IC50 on Recombinant human FAP [1] turned out to be 3.1 nM; at DPP4 (recombinant human DPP4) it was 31500 nM.

As for `CCOc1ccc(NC2CCN(CC(=O)N3CCC[C@H]3C#N)CC2)c2cccnc12` [Example 370, (2S)-1-[2-[4-[(8-ethoxy-5-quinolyl)amino]-1-piperidyl]acetyl]pyrrolidine-2-carbonitrile], the IC50 on Recombinant human FAP [1] was determined as 11 nM; on DPP4 (recombinant human DPP4), 36800 nM. For `COc1cccc2cc(N(C)C3CCN(CC(=O)N4CCC[C@H]4C#N)CC3)cnc12` [Example 325, (2S)-1-[2-[4-[methyl-(8-methoxy-3-quinolyl)amino]-1-piperidyl]acetyl]pyrrolidine-2-carbonitrile], in that order: 8.9 nM and no less than 100000 nM. On the same counts, the results for `COc1cccc2c(N[C@@H]3CCN(CC(=O)N4C[C@@H](F)C[C@H]4C#N)C3)ccnc12` [Example 195, (2S,4S)-4-fluoro-1-[2-[(3R)-3-[(8-methoxy-4-quinolyl)amino]pyrrolidin-1-yl]acetyl]pyrrolidine-2-carbonitrile] are 21.7 nM and 14100 nM. `CN(Cc1ccccc1)C(=O)c1ccc(NC2CCN(CC(=O)N3C[C@@H](F)C[C@H]3C#N)CC2)c2cccnc12` [Example 393, N-benzyl-N-methyl-5-[[1-[2-oxo-2-[(2S,4S)-2-cyano-4-fluoro-pyrrolidin-1-yl]ethyl]-4-piperidyl]amino]quinoline-8-carboxamide]: the results for the IC50 at Recombinant human FAP [1] and at DPP4 (recombinant human DPP4) were 43.8 nM and 3310 nM, respectively. For the compound `COc1ccc2cc(N(C)C3CCN(CC(=O)N4C[C@@H](F)C[C@H]4C#N)CC3)cnc2c1` [Example 328, (2S,4S)-4-fluoro-1-(2-(4-((7-methoxyquinolin-3-yl)(methyl)amino)piperidin-1-yl)acetyl)pyrrolidine-2-carbonitrile], the results for the 50% inhibitory concentration (IC50) at Recombinant human FAP [1] and at DPP4 (recombinant human DPP4) were 6 nM and 21400 nM, respectively. Turning to `N#C[C@@H]1C[C@H](F)CN1C(=O)CN1CC[C@@H](Nc2ccc3nc(Cl)ccc3c2)C1` [Example 207, (2S,4S)-4-fluoro-1-[2-[(3R)-3-[(2-chloro-6-quinolyl)amino]pyrrolidin-1-yl]acetyl]pyrrolidine-2-carbonitrile], on Recombinant human FAP [1], the IC50 came to 17.9 nM. The same measure, in the same setting: the result for `N#C[C@@H]1CCCN1C(=O)CN1CCC(Nc2cccc3ncc(C(F)(F)F)cc23)CC1` [Example 387, (2S)-1-[2-[4-[[3-(trifluoromethyl)-5-quinolyl]amino]-1-piperidyl]acetyl]pyrrolidine-2-carbonitrile] reads 32.4 nM.

Regarding `N#C[C@@H]1CCCN1C(=O)CN1CC[C@H](Oc2ccnc3c(C(F)(F)F)cccc23)C1` [Example 95, (S)-1-(2-((S)-3-((8-(trifluoromethyl)quinolin-4-yl)oxy)pyrrolidin-1-yl)acetyl)pyrrolidine-2-carbonitrile], the IC50 at recombinant human DPP7 was 4740 nM; at Recombinant human FAP [2], 3.3 nM; against DPP4 (25° C., H-Gly-Pro-AMC substrate), greater than 1000 nM. The “DPP9 inhibition % at 1 μM” value on recombinant human DPP9 was “No inhibition**”. `N#C[C@@H]1CCCN1C(=O)CN1CC[C@@H](Nc2ccc3nc(Cl)ccc3c2)C1` [Example 206, (2S)-1-[2-[(3R)-3-[(2-chloro-6-quinolyl)amino]pyrrolidin-1-yl]acetyl]pyrrolidine-2-carbonitrile]: on Recombinant human FAP [1], the concentration for half-maximal inhibition (IC50) worked out at 32.8 nM.

Regarding `N#C[C@@H]1C[C@H](F)CN1C(=O)CN1CCC(Nc2cc(Cl)nc(N3CCOCC3)c2)CC1` [Example 385, (2S,4S)-1-[2-[4-[(2-chloro-6-morpholino-4-pyridyl)amino]-1-piperidyl]acetyl]-4-fluoro-pyrrolidine-2-carbonitrile], on Recombinant human FAP [1], the IC50 is 77.4 nM. Consider `N#C[C@@H]1C[C@H](F)CN1C(=O)CN1CCC(Nc2cccc3ncc(C(F)(F)F)cc23)CC1` [Example 386, (2S,4S)-4-fluoro-1-[2-[4-[[3-(trifluoromethyl)-5-quinolyl]amino]-1-piperidyl]acetyl]pyrrolidine-2-carbonitrile], for which, on Recombinant human FAP [1], the IC50 was determined as 19.8 nM. Still for that read-out and setting: the result for `N#C[C@@H]1C[C@H](F)CN1C(=O)CN1CCC(Nc2cccc3nc[nH]c23)CC1` [Example 384, (2S,4S)-1-[2-[4-(3H-benzimidazol-4-ylamino)-1-piperidyl]acetyl]-4-fluoro-pyrrolidine-2-carbonitrile] reads 74.9 nM.
